Experimental data: patent US6410034B1, “Dermal absorption-promoting agent” (Takasago International Corporation, priority 1998, dated 2002)
Entries after “also recorded” stand apart in the source; their conditions may differ.

Tests used:
[1] = isosorbide dinitrate in an aqueous suspension; Fragrance Journal, p34, 1996-4; cited from earlier work
[2] = combined together with indomethacin; YAKUZAIGAKU vol.56 No.3 (1996), DDS Vol. 12 No. 2 (1997); cited from earlier work
[3] = tested on: skin of Yucatan Micropig; test: Dermal permeation test of indomethacin (IM), Example 1, water/ethanol samples, modified Franz diffusion cell; format: in vitro ADME; details: indomethacin 0.05 g, promoting agent 0.3 g, water 6.0 ml / ethanol 4.0 ml, 37° C., 30 to 48 hours
Description: (§1) A lipophilic agent indomethacin (IM) and a hydrophilic agent antipyrine (ANP) were used to compare the dermal absorption-promoting effect of p-menthane-3,8-diol (MDM: mixture of trans and cis forms) with those of l-menthol (LM) and 3-l-menthoxypropane-1,2-diol (MPD) together with a control.
(§2) According to the formulations shown in Table 1 (IM) and Table 2 (ANP), each of the three dermal absorption-promoting agents was employed, dissolved in ethanol and combined with water to prepare a sample. The samples thus prepared were stored at 37° C. until use.
(§3) A skin of Yucatan Micropig [5 month-old, male, NIPPON CHARLES RIVER (KK)] stored frozen at −80° C. was thawed at room temperature and, after removing an unwanted fat adhering to the skin, cut into pieces, each in about 2 cm square, which were subjected to a permeation test.
(§4) In the permeation test, a diffusion cell of a modified Franz type (valid surface area: 1.1 cm^2, receptor phase: 16 ml) containing a phosphate buffer, pH7.1, was provided on the receptor phase side, which was stirred with a star-head magnet at 600 rpm with keeping at 37° C. […] A receptor phase fractionated was subjected to a high pressure liquid chromatography (HPLC) to quantify the drug which had permeated. […]
(§5) IM and ANP were determined using an UV spectrophotometer model SPD-6A (SHIMADZU) at wavelengths of 254 nm and 245 nm, respectively. […]

[4] = tested on: skin of Yucatan Micropig; test: Dermal permeation test of antipyrine (ANP), Example 1, water/ethanol samples, modified Franz diffusion cell; format: in vitro ADME; details: promoting agent dissolved in ethanol and combined with water, 37° C., 30 to 48 hours
Description: as §1, §2, §3, §4, §5

[5] = tested on: skin of Yucatan Micropig; test: Dermal permeation test of IM, Example 2, water/1,3-butylene glycol samples; format: in vitro ADME; details: indomethacin 0.05 g, promoting agent 0.3 g, water 6.0 ml / 1,3-BG 4.0 ml
Procedure: as §3
(§6) In the permeation test, a diffusion cell of a modified Franz type (valid surface area: 1.1 cm^2, receptor phase: 16 ml) containing a phosphate buffer, pH7.1, was provided on the receptor phase side, which was stirred with a star-head magnet at 600 rpm with keeping at 37° C. On the donor side, 0.5 ml of a sample solution was contained and closed with a glass ball in order to prevent the evaporation of the sample solution. At a predetermined time, an aliquot was sampled and an equal volume of a buffer solution was supplemented. A receptor phase fractionated was subjected to a high pressure liquid chromatography (HPLC) to quantify the drug which had permeated. The permeation test was continued over a period of 30 to 48 hours.
A lipophilic agent indomethacin (IM) was used to compare the dermal absorption-promoting effect of p-menthane-3,8-diol (MDM: mixture of trans and cis forms) with those of l-menthol (LM) together with a control.

[6] = tested on: skin of Yucatan Micropig; test: Dermal permeation test of IM, Example 3, water/1,3-butylene glycol samples, MDM, MPD and 1:1 combination; format: in vitro ADME; details: indomethacin 0.05 g, promoting agent 0.3 g total (combination 0.15 g + 0.15 g), water 6.0 ml / 1,3-BG 4.0 ml
Procedure: as §3
as §6, with “hours. […]” for “hours.”

[7] = tested on: mosquito; details: known from prior art; cited from earlier work

In the case of CC(C)[C@@H]1CC[C@@H](C)C[C@H]1O [LM, l-menthol], the “promotion of dermal permeation of isosorbide dinitrate” value [1] is listed as “promoted greatly” and the “promotion of dermal absorption of indomethacin” value [2] is listed as “promotes the dermal absorption of indomethacin”.

In the case of CC1CCC(C(C)(C)O)C(O)C1 (centres unmarked) [MDM, p-menthane-3,8-diol], the “dermal permeation-promoting ability (cumulative permeation of IM vs time, FIG. 1)” value [3] is reported as “not as high as that of LM but was higher than that of MPD; also recorded: promoted the dermal permeation of IM”, the “dermal permeation-promoting ability (cumulative permeation of IM vs time, FIG. 1)” value ([3]; listed as p-menthane-3,8-diol) is reported as “promoted the dermal permeation of both of lipophilic agent indomethacin and hydrophilic antipyrine” and the “dermal permeation-promoting ability (cumulative permeation of ANP vs time, FIG. 2)” value [4] is reported as “exhibited a dermal permeation-promoting ability, although the ability was not as high as that of LM and MPD; also recorded: promoted the dermal permeation of ANP”. For the same compound, the “dermal permeation-promoting ability (cumulative permeation of ANP vs time, FIG. 2)” value ([4]; listed as p-menthane-3,8-diol) was “promoted the dermal permeation of both of lipophilic agent indomethacin and hydrophilic antipyrine”, the “dermal permeation-promoting ability (cumulative permeation of IM vs time, FIG. 3)” value [5] was “exhibited a dermal permeation-promoting ability, although the ability was not as high as that of LM; also recorded: promoted the dermal permeation of IM” and the “dermal permeation-promoting ability (cumulative permeation of IM vs time, FIG. 4)” value [6] was “higher than that of MPD”. For the same compound, the “repelling effect on a mosquito” value [7] was “known to have a repelling effect on a mosquito”.

For CC12CCC(CC1)C(C)(C)O2 [1,8-cineol], the “promotion of dermal permeation of isosorbide dinitrate” value [1] is given as “promoted greatly”.

In the case of CC1CCC(C(C)C)C(OCC(O)CO)C1 (stereo not drawn) [MPD, 3-l-menthoxypropane-1,2-diol], the “promotion of dermal absorption of indomethacin” value [2] is given as “somewhat lower than that of l-menthol; also recorded: promotes the dermal absorption of indomethacin”.
